# Assay results: ChEMBL document CHEMBL1208667, “Permanent positive charge strongly influences DNA/RNA binding and antiproliferative activity of urea-phenanthridinium conjugates” (Eur J Med Chem, 2010)
# Activity calls are given as the source filed them. No cut-off for these calls is given here.
# Experiments:
# Nucleic Acid [1] = assay: Binding affinity to poly G-poly C RNA in sodium cacodylate buffer at pH 7 by fluorescence titration assay; assay type: nucleic-acid assay
# HT-29 = assay: Cytotoxicity against human HT-29 cells at 0.1 to 100 uM after 72 hrs by MTT assay; assay type: functional, cell-based
# [2] = Solubility of the compound in water; assay type: physicochemical; conditions: buffer
# Nucleic Acid [3] = assay: Binding affinity to […] assessed as change in melting temperature at compound to DNA molar ratio of 0.3 at pH 7 by thermal denaturation assay; assay type: nucleic-acid assay
# Calf thymus DNA [4] = assay: Binding affinity to calf thymus DNA assessed as melting temperature at compound to DNA molar ratio of 0.2 at pH 7 by thermal denaturation assay; assay type: nucleic-acid assay; conditions: Bos taurus
# Nucleic Acid [5] = assay: Binding affinity to poly A-poly U RNA in citric acid buffer at pH 5 by fluorescence titration assay; assay type: nucleic-acid assay
# Nucleic Acid [6] = assay: Binding affinity to poly A-poly U RNA in citric acid buffer at pH 5 by fluorescence titration assay relative to control; assay type: nucleic-acid assay
# HEp-2 = assay: Cytotoxicity against human Hep2 cells at 0.1 to 100 uM after 72 hrs by MTT assay; assay type: functional, cell-based
# MIA PaCa-2 [7] = assay: Cytotoxicity against human MIAPaCa2 cells at 0.1 to 100 uM after 72 hrs by MTT assay; assay type: functional, cell-based
# Nucleic Acid [8] = assay: Binding affinity to […] assessed as melting temperature at compound to DNA molar ratio of 0.3 at pH 5 by thermal denaturation assay; assay type: nucleic-acid assay
# Nucleic Acid [9] = assay: Binding affinity to poly G-poly C RNA in sodium cacodylate buffer at pH 7 by fluorescence titration assay relative to control; assay type: nucleic-acid assay
# MIA PaCa-2 [10] = assay: Cytotoxicity against human MIAPaCa2 cells after 72 hrs by MTT assay; assay type: functional, cell-based
# Nucleic Acid [11] = assay: Binding affinity to […] assessed as melting temperature at compound to DNA molar ratio of 0.3 at pH 7 by thermal denaturation assay; assay type: nucleic-acid assay
# Nucleic Acid [12] = assay: Binding affinity to AMP in sodium cacodylate buffer at pH 7 by fluorescence titration assay relative to control; assay type: nucleic-acid assay
# Calf thymus DNA [13] = assay: Binding affinity to calf thymus DNA in sodium cacodylate buffer at pH 7 by fluorescence titration assay relative to control; assay type: nucleic-acid assay; conditions: Bos taurus
# Nucleic Acid [14] = assay: Binding affinity to poly G-poly C RNA in citric acid buffer at pH 5 by fluorescence titration assay; assay type: nucleic-acid assay
# Caco-2 = assay: Cytotoxicity against human Caco-2 cells at 100 uM after 72 hrs by MTT assay; assay type: functional, cell-based
# Nucleic Acid [15] = assay: Binding affinity to poly A-poly U RNA assessed as change in melting temperature at compound to DNA molar ratio of 0.2 at pH 7 by thermal denaturation assay; assay type: nucleic-acid assay
# Calf thymus DNA [16] = assay: Binding affinity to calf thymus DNA at compound to DNA molar ratio of 0.1 to 0.5 at pH 5 by circular dichroism; assay type: nucleic-acid assay; conditions: Bos taurus
# Nucleic Acid [17] = assay: Binding affinity to poly A-poly U RNA assessed as melting temperature at compound to DNA molar ratio of 0.2 at pH 5 by thermal denaturation assay; assay type: nucleic-acid assay
# Nucleic Acid [18] = assay: Binding affinity to […] assessed as melting temperature at compound to DNA molar ratio of 0.2 at pH 5 by thermal denaturation assay; assay type: nucleic-acid assay
# Nucleic Acid [19] = assay: Binding affinity to CMP in sodium cacodylate buffer at pH 7 by fluorescence titration assay relative to control; assay type: nucleic-acid assay
# Calf thymus DNA [20] = assay: Binding affinity to calf thymus DNA in sodium cacodylate buffer at pH 7 by fluorescence titration assay; assay type: nucleic-acid assay; conditions: Bos taurus
# Calf thymus DNA [21] = assay: Binding affinity to calf thymus DNA assessed as change in melting temperature at compound to DNA molar ratio of 0.2 at pH 7 by thermal denaturation assay; assay type: nucleic-acid assay; conditions: Bos taurus
# Calf thymus DNA [22] = assay: Binding affinity to calf thymus DNA assessed as melting temperature at compound to DNA molar ratio of 0.2 at pH 5 by thermal denaturation assay; assay type: nucleic-acid assay; conditions: Bos taurus
# Nucleic Acid [23] = assay: Binding affinity to poly A-poly U RNA assessed as melting temperature at compound to DNA molar ratio of 0.3 at pH 7 by thermal denaturation assay; assay type: nucleic-acid assay
# Nucleic Acid [24] = assay: Binding affinity to […] assessed as change in melting temperature at compound to DNA molar ratio of 0.2 at pH 7 by thermal denaturation assay; assay type: nucleic-acid assay
# Nucleic Acid [25] = assay: Binding affinity to UMP in citric acid buffer at pH 5 by fluorescence titration assay relative to control; assay type: nucleic-acid assay
# Nucleic Acid [26] = assay: Binding affinity to AMP in citric acid buffer at pH 5 by fluorescence titration assay relative to control; assay type: nucleic-acid assay
# Nucleic Acid [27] = assay: Binding affinity to poly A-poly U RNA in sodium cacodylate buffer at pH 7 by fluorescence titration assay; assay type: nucleic-acid assay
# Calf thymus DNA [28] = assay: Binding affinity to calf thymus DNA in citric acid buffer at pH 5 by fluorescence titration assay relative to control; assay type: nucleic-acid assay; conditions: Bos taurus
# Nucleic Acid [29] = assay: Binding affinity to poly A-poly U RNA assessed as change in melting temperature at compound to DNA molar ratio of 0.2 at pH 5 by thermal denaturation assay; assay type: nucleic-acid assay
# Nucleic Acid [30] = assay: Binding affinity to poly A-poly U RNA in sodium cacodylate buffer at pH 7 by fluorescence titration assay relative to control; assay type: nucleic-acid assay
# Nucleic Acid [31] = assay: Binding affinity to CMP in citric acid buffer at pH 5 by fluorescence titration assay relative to control; assay type: nucleic-acid assay
# Nucleic Acid [32] = assay: Binding affinity to poly G-poly C RNA in citric acid buffer at pH 5 by fluorescence titration assay relative to control; assay type: nucleic-acid assay
# Nucleic Acid [33] = assay: Binding affinity to poly A-poly U RNA assessed as biphasic transitions of change in melting temperature at compound to DNA molar ratio of 0.2 at pH 5 by thermal denaturation assay; assay type: nucleic-acid assay
# Calf thymus DNA [34] = assay: Binding affinity to calf thymus DNA in citric acid buffer at pH 5 by fluorescence titration assay; assay type: nucleic-acid assay; conditions: Bos taurus
# Nucleic Acid [35] = assay: Binding affinity to poly dA-poly dT RNA in sodium cacodylate buffer at pH 7 by UV-v titration assay; assay type: nucleic-acid assay
# Calf thymus DNA [36] = assay: Binding affinity to calf thymus DNA assessed as melting temperature at compound to DNA molar ratio of 0.3 at pH 5 by thermal denaturation assay; assay type: nucleic-acid assay; conditions: Bos taurus
# Nucleic Acid [37] = assay: Binding affinity to […] assessed as change in melting temperature at compound to DNA molar ratio of 0.2 at pH 5 by thermal denaturation assay; assay type: nucleic-acid assay
# Calf thymus DNA [38] = assay: Binding affinity to calf thymus DNA assessed as melting temperature at compound to DNA molar ratio of 0.3 at pH 7 by thermal denaturation assay; assay type: nucleic-acid assay; conditions: Bos taurus
# Calf thymus DNA [39] = assay: Binding affinity to calf thymus DNA assessed as change in melting temperature at compound to DNA molar ratio of 0.2 at pH 5 by thermal denaturation assay; assay type: nucleic-acid assay; conditions: Bos taurus
# Nucleic Acid [40] = assay: Binding affinity to poly dA-poly dT RNA in sodium cacodylate buffer at pH 7 by fluorescence titration assay relative to control; assay type: nucleic-acid assay
# HeLa = assay: Cytotoxicity against human HeLa cells at 0.1 to 100 uM after 72 hrs by MTT assay; assay type: functional, cell-based
# Calf thymus DNA [41] = assay: Binding affinity to calf thymus DNA assessed as change in melting temperature at compound to DNA molar ratio of 0.3 at pH 5 by thermal denaturation assay; assay type: nucleic-acid assay; conditions: Bos taurus
# Nucleic Acid [42] = assay: Binding affinity to poly A-poly U RNA assessed as melting temperature at compound to DNA molar ratio of 0.2 at pH 7 by thermal denaturation assay; assay type: nucleic-acid assay
smiles,measurement,setting,value
Cc1c2cc(NC(=O)NCCCCCCCCCNC(=O)Nc3ccc4c(c3)c(C)[n+](C)c3ccccc43)ccc2c2ccccc2[n+]1C.O=S(=O)([O-])O.O=S(=O)([O-])O,log Ks,Nucleic Acid [1],5.4
same,Activity,HT-29,inactive
same,solubility,[2],1060 µM
same,ΔTm,Nucleic Acid [3],5.5 °C
same,Tm,Calf thymus DNA [4],84.2 °C
same,log Ks,Nucleic Acid [5],5.4
same,RFU,Nucleic Acid [6],8.1
same,Activity,HEp-2,inactive
same,Activity,MIA PaCa-2 [7],inactive
same,Tm,Nucleic Acid [8],57.7 °C
same,RFU,Nucleic Acid [9],0.5
same,Activity,MIA PaCa-2 [10],Dose-dependent effect
same,Tm,Nucleic Acid [11],70.4 °C
same,RFU,Nucleic Acid [12],-55
same,RFU,Calf thymus DNA [13],0.7
same,log Ks,Nucleic Acid [14],5.2
same,Activity,Caco-2,inactive
same,ΔTm,Nucleic Acid [15],2.3 °C
same,Activity,Calf thymus DNA [16],Active
same,Tm,Nucleic Acid [17],82.9 °C
same,Tm,Nucleic Acid [18],57.5 °C
same,RFU,Nucleic Acid [19],-9.4
same,log Ks,Calf thymus DNA [20],5.9
same,ΔTm,Calf thymus DNA [21],4.9 °C
same,Tm,Calf thymus DNA [22],73.8 °C
same,Tm,Nucleic Acid [23],53.6 °C
same,ΔTm,Nucleic Acid [24],4.2 °C
same,RFU,Nucleic Acid [25],-15.8
same,RFU,Nucleic Acid [26],-38.5
same,log Ks,Nucleic Acid [27],5.8
same,RFU,Calf thymus DNA [28],0.3
same,ΔTm,Nucleic Acid [29],1.8 °C
same,RFU,Nucleic Acid [30],4
same,RFU,Nucleic Acid [31],-6.4
same,RFU,Nucleic Acid [32],0
same,ΔTm,Nucleic Acid [33],-1.3 °C
same,log Ks,Calf thymus DNA [34],5.6
same,log Ks,Nucleic Acid [35],5.3
same,Tm,Calf thymus DNA [36],74 °C
same,ΔTm,Nucleic Acid [37],7.5 °C
same,Tm,Calf thymus DNA [38],85.1 °C
same,ΔTm,Calf thymus DNA [39],13.2 °C
same,RFU,Nucleic Acid [40],3.9
same,Activity,HeLa,inactive
same,ΔTm,Calf thymus DNA [41],13.4 °C
same,Tm,Nucleic Acid [42],53.8 °C
Cc1c2cc(NC(=O)NCCCCCCNC(=O)Nc3ccc4c(c3)c(C)[n+](C)c3ccccc43)ccc2c2ccccc2[n+]1C.O=S(=O)([O-])O.O=S(=O)([O-])O,log Ks,Nucleic Acid [1],6.2
same,Activity,HT-29,Active
same,solubility,[2],1240 µM
same,ΔTm,Nucleic Acid [3],6.4 °C
same,Tm,Calf thymus DNA [4],83.2 °C
same,log Ks,Nucleic Acid [5],5.6
same,RFU,Nucleic Acid [6],20
same,Activity,HEp-2,Active
same,Activity,MIA PaCa-2 [7],Active
same,Tm,Nucleic Acid [8],60.4 °C
same,RFU,Nucleic Acid [9],0.3
same,Activity,MIA PaCa-2 [10],Dose-dependent effect
same,Tm,Nucleic Acid [11],71.3 °C
same,RFU,Nucleic Acid [12],-47.8
same,RFU,Calf thymus DNA [13],1.8
same,log Ks,Nucleic Acid [14],5.5
same,Activity,Caco-2,Active
same,ΔTm,Nucleic Acid [15],0 °C
same,Activity,Calf thymus DNA [16],Active
same,Tm,Nucleic Acid [17],83 °C
same,Tm,Nucleic Acid [18],59.7 °C
same,RFU,Nucleic Acid [19],3.5
same,log Ks,Calf thymus DNA [20],6.2
same,ΔTm,Calf thymus DNA [21],3.9 °C
same,Tm,Calf thymus DNA [22],74.6 °C
same,Tm,Nucleic Acid [23],51.5 °C
same,ΔTm,Nucleic Acid [24],5.2 °C
same,RFU,Nucleic Acid [25],-11.5
same,RFU,Nucleic Acid [26],3.8
same,log Ks,Nucleic Acid [27],5.4
same,RFU,Calf thymus DNA [28],2.7
same,ΔTm,Nucleic Acid [29],2.2 °C
same,RFU,Nucleic Acid [30],15.8
same,RFU,Nucleic Acid [31],-15.3
same,RFU,Nucleic Acid [32],0
same,ΔTm,Nucleic Acid [33],-1.2 °C
same,log Ks,Calf thymus DNA [34],> 7
same,log Ks,Nucleic Acid [35],5.6
same,Tm,Calf thymus DNA [36],76.3 °C
same,ΔTm,Nucleic Acid [37],9.7 °C
same,Tm,Calf thymus DNA [38],84.8 °C
same,ΔTm,Calf thymus DNA [39],14 °C
same,RFU,Nucleic Acid [40],10.7
same,Activity,HeLa,Active
same,ΔTm,Calf thymus DNA [41],15.7 °C
same,Tm,Nucleic Acid [42],51.5 °C
